{
  "source": "patent US20070020194A1",
  "about": "“Nasally administered appetite suppressant” (priority 2005, published 2007)",
  "key": {"[1]": {"conditions": "cited from earlier work"}, "[2]": {"conditions": "70 kg adult; cited from earlier work"}, "[3]": {"assay": "Food intake study, intranasal lidocaine vs saline before a test meal", "assay_type": "in vivo, human", "experimental": "Three males and one female between 23 and 60 years of age with BMI's less than 25 kg/m2 participated in a study of food intake. The subjects presented to the food intake laboratory at noon after an overnight fast except for water from 9 pm the prior night on two occasions a week apart. They had 10 mg (0.5 cc) of lidocaine or 0.5 cc normal saline administered in each nostril 20 minutes before presentation of a meal consisting of fried chicken pieces and water. They were allowed to eat and drink as much or as little as they wished over a 20-minute period, and there were more chicken pieces than they could reasonably be expected to eat at one sitting. The order of the lidocaine and saline was balanced and the study was performed in a double-blind fashion.\nThe four subjects consumed 15%, 11%, 27% and 33% less on the lidocaine week compared to the placebo week. […] Sibutramine, an obesity drug, gives an 8% weight loss at 6 months and causes a 12% decrease in food intake."}, "[4]": {"conditions": "applied topically; cited from earlier work"}},
  "note": "Where “and” joins values, the source holds several entries; their conditions need not be identical. Identical values can stand only once.",
  "data": [
    {"smiles": "CC(C)CC(N(C)C)C1(c2ccc(Cl)cc2)CCC1", "note": "(centres unmarked) [Sibutramine]", "values": [
      {"measurement": "weight loss", "setting": "[1]; at 6 months", "value": 8, "unit": "%"},
      {"measurement": "decrease in food intake", "setting": "[1]; in vivo", "value": 12, "unit": "%"}
    ]},
    {"smiles": "CCN(CC)CC(=O)Nc1c(C)cccc1C", "note": "[lidocaine]", "values": [
      {"measurement": "maximum safe dosage for topical anesthetic", "setting": "[2]", "value": 500, "unit": "mg"},
      {"measurement": "less food consumed on the lidocaine week compared to the placebo week (individual subjects)", "setting": "[3]; 10 mg (0.5 cc) lidocaine in each nostril 20 minutes before meal, 20-minute meal of fried chicken pieces, four subjects, BMI less than 25 kg/m2", "value": "15% and 11% and 27% and 33%"},
      {"measurement": "overall reduction in food intake", "setting": "[3]; 10 mg lidocaine per nostril vs saline, four subjects, p<0.02", "value": 21.5, "unit": "%+10.2%"},
      {"measurement": "weight loss that might result if the food intake reduction is sustained", "setting": "[3]; extrapolated from pilot study by comparison with sibutramine", "value": "≤ 14", "unit": "%"},
      {"measurement": "duration of anesthesia", "setting": "[4]", "value": "30 to 45", "unit": "min"},
      {"measurement": "time to peak anesthesia", "setting": "[4]", "value": "2 to 5", "unit": "min"}
    ]}
  ]
}
